Measured values reported in ChEMBL document CHEMBL1122618, “Total chemical synthesis and antitumor evaluation of 4-demethoxy-10,10-dimethyldaunomycin” (1984).

System: Mus musculus
Assay: The compound was tested intraperitoneally against P388 acute lymphocytic leukemia in mice (dose 10 mg/kg)
Format: functional
Settings: route intraperitoneal

CC(=O)[C@@]1(O)C[C@H](OC2CC(N)C(O)C(C)O2)c2c(O)c3c(c(O)c2C1(C)C)C(=O)c1ccccc1C3=O (stereo partly specified)
T/C: >316
